# Reference: article PMC5703966, “Systemic clearance and brain distribution of carbazole-based cyanine compounds as Alzheimer’s disease drug candidates” (Scientific Reports, 2017)
# How the values were obtained:
# [1] = Blood cell partitioning (blood to plasma ratio); assay type: in vitro ADME; conditions: fresh whole blood, 37 °C
# Method: The blood to plasma ratio was determined using the method shown in supplemental information (Supplemental Methods). […] The blood cell partitioning was calculated as follows. […] Plasma, liver microsomes and hepatocyte binding by RED device The stability of the compounds in plasma, liver microsomes and hepatocyte were studied to ensure the reliability of the binding data. Hepatocyte was deactivated by leaving them on a bench for 2 days and going through a freeze thaw cycle thereafter.
# [2] = in vitro; conditions: human, Caco-2
# [3] = Brain distribution by brain slices experiment; assay type: in vitro ADME, mouse; conditions: mouse brain slices, positive controls
# Method: The unbound volume of distribution in the brain (V u, brain) was determined in fresh brain slices using the protocol published by Friden et al.[25].
# [4] = Hepatocyte stability; assay type: in vitro ADME; conditions: ICR/CD-1, hepatocytes (cryopreserved, suspension); mouse, 1 μM input, positive controls; read-out: Hepatocytes Clint, app
# [5] = target: T1, CYP1A2 (Homo sapiens, UniProt P05177); conditions: hepatocytes
# T1 sequence (P05177 1-516): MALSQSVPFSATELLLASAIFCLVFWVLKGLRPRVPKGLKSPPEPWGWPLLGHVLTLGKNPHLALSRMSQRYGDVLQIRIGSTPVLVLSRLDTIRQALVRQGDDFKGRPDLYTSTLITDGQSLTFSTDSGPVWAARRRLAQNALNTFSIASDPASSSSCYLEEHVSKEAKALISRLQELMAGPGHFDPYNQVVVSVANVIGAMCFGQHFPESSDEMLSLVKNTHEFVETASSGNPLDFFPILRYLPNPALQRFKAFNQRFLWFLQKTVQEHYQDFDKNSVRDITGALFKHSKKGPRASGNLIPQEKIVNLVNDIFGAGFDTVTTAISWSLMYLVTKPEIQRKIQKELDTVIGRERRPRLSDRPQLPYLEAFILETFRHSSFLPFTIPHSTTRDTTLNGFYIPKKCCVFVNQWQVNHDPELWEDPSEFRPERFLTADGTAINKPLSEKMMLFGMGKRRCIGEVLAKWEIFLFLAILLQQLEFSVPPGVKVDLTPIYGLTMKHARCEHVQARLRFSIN
# Method: The samples were centrifuged at approximately 1,900 g for 10 mins before LC-MS/MS analysis.
# The C YP3A4 and CYP1A2 activities in human hepatocytes were assayed by testosterone 6β-
# [6] = Plasma binding by RED device; assay type: in vitro ADME, mouse; conditions: mouse plasma, RED device, 4 h, 37 °C; also: tested at 0.4 µM
# Method: (§1) Nonspecific binding in plasma (f u, plasma), microsomes (f u, mic) and hepatocyte (f u, hep) were determined using the method seen in supplemental information (Supplemental Methods). […]
# (§2) All validation compounds were incubated at 37 °C over 4 h, and in triplicate. For […]
# (§3) plasma stability, 10 mM DMSO solutions of SLM and SLOH were diluted to 40 µM (10% DMSO). Plasma […]
# (§4) shaking water bath (60 oscillations/min approx.). The assay was started by addition of 6 µL aliquots to […]
# (§5) the plasma (final DMSO incubation concentration 0.1%). […]
# (§6) MS/MS. Natural logarithm of peak area ratios (compound peak area normalized by IS peak area) were plotted against time and half-life calculated. […]
# (§7) placed into the sample chamber (indicated by the red ring) with 400 µL of PBS into the adjacent chamber.
# (§8) The plate was sealed with a self-adhesive lid and incubated at 37 °C on an orbital shaker (1.5 g approx.) for 4 h. Aliquots (100 µL) were removed from each side of the insert, and analyzed after protein precipitation using 4 folds acetonitrile (ACN) containing berberine chloride as internal standard (IS) by LC-MS/MS (Analytical me thod seen below). The experimental procedure outlined in the Thermo Scientific RED device systems brochure was adopted in the present study . […]
# [7] = Plasma binding by RED device; assay type: in vitro ADME, human; conditions: human plasma, RED device, 4 h, 37 °C; also: tested at 0.4 µM
# Method: as §1, §2, §3, §4, §5, §6, §7, §8
# [8] = system: Caco-2 cells; assay: In vitro permeability study using Caco-2 cell; conditions: Caco-2, 1 μM input, positive controls
# [9] = target: T2, OATP1A2 (Homo sapiens, UniProt P46721); assay: OATP substrate identification, uptake in stably transfected HEK293 cells
# T2 sequence (P46721 1-670): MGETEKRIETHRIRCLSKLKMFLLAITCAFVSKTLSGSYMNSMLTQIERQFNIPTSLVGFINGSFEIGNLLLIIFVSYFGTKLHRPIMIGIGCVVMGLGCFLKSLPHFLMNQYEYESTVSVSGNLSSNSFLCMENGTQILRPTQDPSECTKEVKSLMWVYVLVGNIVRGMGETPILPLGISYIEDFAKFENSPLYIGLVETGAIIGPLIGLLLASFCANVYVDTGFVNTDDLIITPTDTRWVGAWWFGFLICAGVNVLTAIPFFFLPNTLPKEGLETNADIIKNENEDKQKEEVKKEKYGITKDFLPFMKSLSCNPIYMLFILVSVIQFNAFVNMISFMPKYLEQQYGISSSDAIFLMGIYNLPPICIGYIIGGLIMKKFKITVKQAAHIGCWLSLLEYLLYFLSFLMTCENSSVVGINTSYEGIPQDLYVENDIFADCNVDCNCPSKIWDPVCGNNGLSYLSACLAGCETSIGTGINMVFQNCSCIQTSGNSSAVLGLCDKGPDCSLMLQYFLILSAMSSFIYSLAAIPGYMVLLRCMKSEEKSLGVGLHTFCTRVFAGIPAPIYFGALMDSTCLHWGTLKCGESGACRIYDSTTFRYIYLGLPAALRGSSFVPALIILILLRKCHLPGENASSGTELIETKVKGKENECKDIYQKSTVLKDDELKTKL
# Method: (§9) Daily changes of medium were performed and on the second day after seeding using medium containing 10 mM sodium butyrate.
# (§10) Stably transfected HEK cells and control vector-transfected HEK293 cells were first washed (3 × 1 mL) with prewarmed HBSS (pH 7.4) and then were incubated with 250 μL of HBSS containing compounds at concentrations of 1 and 10 μM. Cells were incubated for 10 mins at 37 °C for all experiments. After incubation, uptake was stopped by aspirating the incubation solution and washing each well 3 times with 200 μL of ice-old HBSS. The cells were lysed in 150 μL of 1 M NaOH for 30 mins, and then neutralized by adding equal volumes of 1 M HCl.
# (§11) The following equations (3 and 4) were used to calculate the uptake rates (U, pmol/mg/min) and the OATP1B1, OATP1B3, OATP2B1 and OATP1A2 uptake ratio (UR):3 U=Clysate/P×T 4 UR=UOATP1B1/1B3/2B1/1A2/UHEK293−MOCK where C lysate is the compound concentration in cell lysates. P is the protein concentration in cell lysates. T is the incubation time. U OATP1B1/1B3/2B1/1A2 is the uptake rate obtained in HEK293 stably transfected OATP1B1, OATP1B3, OATP2B1 or OATP1A2 transportation. U HEK293-MOCK is the uptake rate obtained in control vector-transfected HEK293 transportation.
# [10] = target: T3, OATP2B1 (Homo sapiens, UniProt O94956); assay: as above; conditions: positive control
# T3 sequence (O94956 1-709): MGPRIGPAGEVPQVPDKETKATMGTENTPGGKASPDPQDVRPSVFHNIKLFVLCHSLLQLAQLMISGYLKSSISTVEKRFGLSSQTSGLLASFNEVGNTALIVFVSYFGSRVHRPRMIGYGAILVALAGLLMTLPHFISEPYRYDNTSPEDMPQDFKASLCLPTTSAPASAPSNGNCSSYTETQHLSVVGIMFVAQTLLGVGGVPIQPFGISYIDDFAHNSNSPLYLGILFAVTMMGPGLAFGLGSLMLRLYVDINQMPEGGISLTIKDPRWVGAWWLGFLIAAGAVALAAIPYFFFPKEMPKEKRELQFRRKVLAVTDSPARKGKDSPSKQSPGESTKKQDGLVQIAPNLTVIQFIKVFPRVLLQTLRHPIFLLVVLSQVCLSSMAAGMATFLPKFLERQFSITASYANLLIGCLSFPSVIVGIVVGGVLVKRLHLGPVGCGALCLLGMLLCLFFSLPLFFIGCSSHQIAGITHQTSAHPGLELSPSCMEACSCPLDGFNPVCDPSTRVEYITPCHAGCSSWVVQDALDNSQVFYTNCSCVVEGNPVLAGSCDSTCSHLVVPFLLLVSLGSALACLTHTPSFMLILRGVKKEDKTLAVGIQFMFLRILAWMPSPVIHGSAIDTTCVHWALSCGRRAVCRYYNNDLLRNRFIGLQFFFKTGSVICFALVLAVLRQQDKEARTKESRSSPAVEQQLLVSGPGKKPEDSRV
# Method: as §9, §10, §11
# [11] = target: T4, OATP1B1 (Homo sapiens, UniProt Q9Y6L6); assay: as above
# T4 sequence (Q9Y6L6 1-691): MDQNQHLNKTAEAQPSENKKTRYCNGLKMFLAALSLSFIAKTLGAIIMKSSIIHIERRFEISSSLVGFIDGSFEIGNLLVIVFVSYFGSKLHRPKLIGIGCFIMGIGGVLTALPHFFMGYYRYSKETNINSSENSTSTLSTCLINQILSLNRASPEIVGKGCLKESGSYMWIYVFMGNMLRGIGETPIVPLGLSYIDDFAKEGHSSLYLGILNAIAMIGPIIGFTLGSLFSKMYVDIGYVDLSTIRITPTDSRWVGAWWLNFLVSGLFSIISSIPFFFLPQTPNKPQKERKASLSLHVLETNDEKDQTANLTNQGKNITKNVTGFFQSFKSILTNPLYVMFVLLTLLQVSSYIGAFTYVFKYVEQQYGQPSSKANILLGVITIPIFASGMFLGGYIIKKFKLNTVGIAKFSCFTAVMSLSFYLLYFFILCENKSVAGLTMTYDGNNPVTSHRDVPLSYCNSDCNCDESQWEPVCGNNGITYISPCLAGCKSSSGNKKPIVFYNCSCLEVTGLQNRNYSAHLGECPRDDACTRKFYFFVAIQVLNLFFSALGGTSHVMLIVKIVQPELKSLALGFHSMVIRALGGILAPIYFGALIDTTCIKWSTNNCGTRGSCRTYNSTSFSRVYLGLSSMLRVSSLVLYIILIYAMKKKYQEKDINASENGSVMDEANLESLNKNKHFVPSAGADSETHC
# Method: as §9, §10, §11
# [12] = target: T5, OATP1B3 (Homo sapiens, UniProt Q9NPD5); assay: as above
# T5 sequence (Q9NPD5 1-702): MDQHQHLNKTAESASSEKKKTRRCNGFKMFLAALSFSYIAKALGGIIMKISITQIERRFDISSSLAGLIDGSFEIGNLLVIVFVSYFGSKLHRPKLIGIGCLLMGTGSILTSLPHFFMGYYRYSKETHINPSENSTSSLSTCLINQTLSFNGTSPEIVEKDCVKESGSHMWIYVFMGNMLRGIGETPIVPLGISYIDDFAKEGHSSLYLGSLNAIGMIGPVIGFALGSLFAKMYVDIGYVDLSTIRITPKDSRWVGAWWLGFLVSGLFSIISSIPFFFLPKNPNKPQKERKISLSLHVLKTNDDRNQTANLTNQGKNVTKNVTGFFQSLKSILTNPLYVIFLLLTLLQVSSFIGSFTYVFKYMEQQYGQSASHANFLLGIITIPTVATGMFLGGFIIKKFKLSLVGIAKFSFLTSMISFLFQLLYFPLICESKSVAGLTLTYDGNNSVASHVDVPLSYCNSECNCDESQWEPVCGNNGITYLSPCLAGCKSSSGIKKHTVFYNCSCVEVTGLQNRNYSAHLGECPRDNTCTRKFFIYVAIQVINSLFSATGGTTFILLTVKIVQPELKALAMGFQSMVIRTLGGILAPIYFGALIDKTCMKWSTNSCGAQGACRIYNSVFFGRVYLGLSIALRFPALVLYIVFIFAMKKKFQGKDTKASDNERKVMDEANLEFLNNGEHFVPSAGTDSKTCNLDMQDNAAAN
# Method: as §9, §10, §11
smiles,measurement,setting,value
"NS(=O)(=O)c1cc(C2(O)NC(=O)c3ccccc32)ccc1Cl (stereo not drawn) [Chlorthalidone, reference compound]","blood plasma ratio at 1 h, 1 μM",[1]; human,11 ± 3.2
same,"blood plasma ratio at 1 h, 1 μM",[1]; mouse,6.2 ± 0.2
C[C@H]1O[C@@H](O[C@H]2[C@@H](O)C[C@H](O[C@H]3[C@@H](O)C[C@H](O[C@H]4CC[C@@]5(C)[C@H](CC[C@@H]6[C@@H]5C[C@@H](O)[C@]5(C)[C@@H](C7=CC(=O)OC7)CC[C@]65O)C4)O[C@@H]3C)O[C@@H]2C)C[C@H](O)[C@@H]1O [Digoxin],Papp A→B at 2 μM,[2],3.5 ± 0.34 ×10⁻⁶ cm/s
same,efflux ratio at 2 μM,[2],5 ± 1.5
"NCC1(CC(=O)O)CCCCC1 [Gabapentin, reference compound]","Unbound brain distribution (Vu, brain)",[3],2.20 ± 1.00 mL/g brain
"CCOc1ccc(NC(C)=O)cc1 [Phenacetin, reference compound]",hepatocyte CLint at 1 μM,[4],33 ± 8 µL/min/1e6 cells
same,phenacetin O-deethylation (CYP1A2 activity),[5],24.3 ± 3.25 pmol/min/106 cells
"CC(C)NCC(O)COc1cccc2ccccc12 (stereo not drawn) [Propranolol, reference compound]","f u,plasma %",[6],0.220 ± 0.0200%
same,"f u,plasma %",[7],6.50 ± 0.480%
same,Papp A→B at 1 μM,[2],17 ± 1.3 ×10⁻⁶ cm/s
COC(=O)c1ccccc1-c1c2ccc(=N)cc-2oc2cc(N)ccc12 [Rhodamine 123],Papp A→B at 1 μM,[2],0.73 ± 0.02 ×10⁻⁶ cm/s
O=C([O-])c1ccccc1-c1c2ccc(=O)cc-2oc2cc([O-])ccc12.[Na+].[Na+] [Sodium fluorescein],Papp (A-B),[8],1.40 ± 0.260 (cm/s) × 10-6
CC[C@@]1(O)C(=O)OCc2c1cc1n(c2=O)Cc2cc3c(CN(C)C)c(O)ccc3nc2-1 [Topotecan],Papp A→B at 2 μM,[2],1.2 ± 0.09 ×10⁻⁶ cm/s
same,efflux ratio at 2 μM,[2],4.6 ± 1.7
"C[C@]12CC[C@@H]3c4ccc(OS(=O)(=O)O)cc4CC[C@H]3[C@@H]1CCC2=O [estrone-3-sulfate, reference compound]",uptake ratio of OATP1A2,[9],18 ± 3.7
same,uptake ratio of OATP2B1,[10],13 ± 2.9
"C[C@]12CC[C@@H]3c4ccc(O)cc4CC[C@H]3[C@@H]1CC[C@@H]2O[C@@H]1O[C@H](C(=O)O)[C@@H](O)[C@H](O)[C@H]1O [β-Estradiol 17-β-D-glucuronide, reference compound]",uptake ratio of OATP1B1,[11],45 ± 7.6
same,uptake ratio of OATP1B3,[12],10 ± 3.0
